Consider two compounds from patent US20230149146A1, “AN AUTOMATED CONTROLLED RELEASE DEVICE FOR LIVESTOCK MANAGEMENT AND METHODS OF USE THEREOF” (CORNELL UNIVERSITY, priority 2020, published 2023).

“Also recorded” adds a separate entry of the source. Marks after values point to notes of the source that are not given here. Where no end group is shown, it is not given here. Some results are limits rather than exact numbers.

Assay [1] relates to lactating Holstein cows. The experiment in a line: Luteal regression and plasma P4 after IVG (catheter) or im PGF, first study and follow-up. It counts as in vivo, cow. How it is done: Catheters were employed to deliver IVG hormones in lactating Holstein cows. […] In a first study, regression of the corpus luteum (“CL regression”) and plasma P4 concentrations after IVG delivery of 25, 50, or 125 mg PGF (Dinoprost) or of saline 7.5 days after induction of ovulation by Ovsynch injections was evaluated. A positive control group received 25 mg of PGF im (i.e., by intramuscular injection), enabling a comparison of outcomes with im PGF to those with IVG PGF.

The next assay concerns cows. The experiment in a line: Larger experiment: physiological outcomes for cows treated with PGF im or IVG. It counts as in vivo, cow. An excerpt: The PGF experiments' ability to show equal luteal regression with im and IVG administration was limited by small N. Data from a larger, more recent experiment supports non-inferiority for IVG compared to im delivery of PGF to induce luteal regression. […] [table]

Assay [2] has as its system lactating Holstein cows. The experiment in a line: Proof-of-concept: luteal regression by IVG PGF from single-chamber prototype device. It counts as in vivo, cow. The settings on record: two 50-mg doses of PGF 12 hours apart via prototype (e-Synch PGF); FIG. 13. How it is done: Lactating Holstein cows were randomized to receive two 50-mg doses of PGF 12 hours apart, or an equal amount of saline solution (negative control), or two 25-mg doses of PGF IVG (IVG positive control), or a single 25-mg dose of PGF im (im positive control). There were four cows in each group (except for saline, two cows). […] In short, administration worked as well as standard injections.

Assay [3] deals with lactating Holstein cows. Put plainly: In-vivo validation of automated IVG device: circulating P4 after PGF2α. Further details: species or system cow. From the text:
The objective was to develop and validate an electronically-controlled hormone delivery device for reproductive control of cattle. […] The IVG device comprises an outer 3D-printed plastic housing, fluid reservoirs connected to delivery pumps and tubing, a programmable circuit board, and a retention mechanism. For in-vitro testing, 4 pumps were programmed to release different target volumes (0.1, 0.2, 0.5, 1.0, and 2.0 g) in 4 replicates (n=80). A Bland-Altman plot was constructed to assess the magnitude of disagreement between expected and delivered volumes. Observations fell within acceptable limits of agreement (1.96 SD) >95% of the time, indicating overall good agreement (mean difference=−0.005 g). To assess in-vivo performance of the IVG device, lactating Holstein cows with at least 1 corpus luteum ≥15 mm in diameter were randomly allocated to 1 of 3 treatments: IM-PGF (n=6); two 25 mg intramuscular doses of PGF (Dinoprost) 24 h apart, DEV-PGF (n=6); four 25 mg doses of PGF released automatically by the IVG device every 12 h, and DEV-CTL (n=4); insertion of an empty IVG device (placebo control). Blood samples were collected at 0, 12, 24, 36, 48, and 72 h after treatment. Data was analyzed by ANOVA with repeated measures in SAS. All devices (12/12) remained in situ until removed at 48-h. Progesterone (P4) concentrations from 0 to 72 h were affected by treatment, time, and their interaction.
To assess IVG device performance in vivo, lactating nonpregnant primiparous and multiparous Holstein cows from the dairy unit of the Cornell University Ruminant Center (Harford, N.Y.) were enrolled in an experiment. Cows were housed in freestall barns with concrete flooring, self-locking head gates, and fans and sprinklers in the feedline. Cows were milked thrice daily at approximately 8-h intervals and were fed a TMR once a day with ad libitum access to feed and water.
All cows enrolled received a GnRH treatment (200 μg of gonadorelin acetate given intramuscular, Gonabreed, Parnell Pharmaceuticals, Overland Park, Kans., USA) at 40±3 DIM. Seven days later, transrectal ultrasonography (TUS) of the ovaries was performed using a 7.5-MHz linear probe (Ibex Pro; E. I. Medical Imagining, Loveland, Colo.). Cows with […] corpus luteum (CL) ≥15 mm in diameter (n=16) were randomly allocated to 1 of 3 treatments: IM-PGF (n=6), DEV-PGF (n=6), and DEV-CTRL (n=4). Cows in IM-PGF received 2 treatments of 25 mg of PGF2α (12.5 mg/mL of dinoprost tromethamine; Lutalyse HighCon, Zoetis, New York, N.Y.) 24 h apart as a 2 mL injection in the semimembranosus or semitendinosus muscle. Cows in DEV-PGF received 1 IVG device programmed to automatically release 4 doses of 25 mg of PGF2α at ˜12 h intervals (first dose released at time 0). Cows in the DEV-CTRL treatment received an IVG device without PGF2α to serve as a placebo control for the presence of the device in the vagina. All devices were removed at 48 h after insertion.
Blood samples (˜8 to 9 mL) were collected at time 0 and at 12, 24, 36, 48, and 72 h after treatment by puncture of caudal blood vessels using heparinized evacuated tubes (Vacutainer; BD, Franklin Lakes, N.J.). Samples were centrifuged at 2,000×g for 20 min at 4° C. Plasma aliquots were harvested and stored at −20° C. until assayed for progesterone (P4) in duplicate in 3 RIA assays performed as described in Beam, S. W., et al., “Energy balance and ovarian follicle development prior to the first ovulation postpartum in dairy cows receiving three levels of dietary fat.” Biol. Reprod. 56:133-142 (1997), the disclosure of which is incorporated herein by reference in its entirety. The average intra-assay coefficient of variation (CV) was 13.2% whereas the interassay CV was 17.0%. […]

Assay [4] relates to lactating Holstein cows. Put plainly: Luteal regression and plasma P4 after IVG (catheter) or im PGF, first study and follow-up. In kind it is in vivo, cow. The settings on record: for CLR % (complete luteal regression, P4 < 1 ng/mL) / P4 (ng/mL): PGF25-2X-IVG: two IVG boluses 25 mg PGF 12 h apart.
The test system of assay [5] is lactating Holstein cows. Put plainly: LH response after IVG delivery of GnRH. The settings on record: citric acid as absorption enhancer. It counts as in vivo, cow. Here is the method:
LH response of lactating Holstein cows after IVG delivery of GnRH was evaluated. Cows received IVG GnRH (Gonadorelin) at a standard dose of 100 μg, or at doses of 500 or 1,000 μg without and with citric acid as an absorption enhancer. A positive control group received 100 μg GnRH im and a negative control group received saline IVG.

[6] abbreviates: PGF25-IM: single im bolus 25 mg PGF, 60 h after treatment.
Setting [7] is: PGF25-IM: single im bolus 25 mg PGF, 72 h after treatment.
Setting [8] is: PGF25-IVG: single IVG bolus 25 mg PGF, 60 h after treatment.
Where [9] appears, read: PGF25-IVG: single IVG bolus 25 mg PGF, 72 h after treatment.
Where [10] appears, read: IVG: two 25 mg doses of PGF 12 h apart.

Consider `CCCCC[C@H](O)/C=C/[C@@H]1[C@@H](C/C=C\CCCC(=O)O)[C@@H](O)C[C@H]1O` [PGF, prostaglandin F2α], for which the “CLR % (complete luteal regression, P4 < 1 ng/mL)” value in the assay on lactating Holstein cows [1] (setting [6]) was 86^b %; in the assay on lactating Holstein cows [1] (setting [7]), 86^b %; with lactating Holstein cows [1] (setting [8]), 42^b %; in the assay with lactating Holstein cows [1] (setting [9]), 42^b %; in the assay on lactating Holstein cows [4] (60 h after treatment), 100^b %; in the assay on lactating Holstein cows [4] (72 h after treatment), 100^b %. Moreover, the “P4 (ng/mL)” value with lactating Holstein cows [1] (setting [6]) is listed as 0.67 ± 0.23^bc ng/mL; in the assay on lactating Holstein cows [1] (setting [7]) it was 0.57 ± 0.24^c ng/mL; in the assay with lactating Holstein cows [1] (setting [8]) it was 1.74 ± 0.50^b ng/mL; in the assay with lactating Holstein cows [1] (setting [9]) it was 2.24 ± 0.64^b ng/mL; in the assay on lactating Holstein cows [4] (60 h after treatment), 0.19 ± 0.04^c ng/mL; in the assay with lactating Holstein cows [4] (72 h after treatment) it was 0.21 ± 0.07^c ng/mL. The “Estrus after PGF, % (increased physical activity within 72 h of treatment)” value in the assay on cows (IM: 25 mg of PGF im) amounted to 47.0%; with cows (setting [10]) it was 51.1%. Besides, the “Ovulation, % (in response to GnRH given within 72 h of PGF treatment)” value in the assay with cows (IM: 25 mg of PGF im) is reported as 88.0%; in the assay on cows (setting [10]) it was 84.1%. For the same compound, the results for the “P4 (ng/mL) at 48 h” value in the assay with cows (IM: 25 mg of PGF im) and with cows (setting [10]) were 0.4 ± 0.1 ng/mL and 0.5 ± 0.1 ng/mL, respectively. Further, the “P4 (ng/mL) at 72 h” value in the assay with cows (IM: 25 mg of PGF im) was found to be 0.4 ± 0.1 ng/mL; with cows (setting [10]), 0.6 ± 0.1 ng/mL. In addition, the “CL regression, % (P4 from >1 ng/mL at treatment to <0.5 ng/mL 72 h after)” value in the assay with cows (IM: 25 mg of PGF im (Dinoprost), n = 169) is listed as 81.1%; in the assay with cows (IVG: two 25 mg doses of PGF 12 h apart (Dinoprost), n = 179) it was 81.0%. For the same compound, the “pattern of P4 decline” value in the assay on lactating Holstein cows [2] was “consistent with CL regression and similar to that of cows in the positive control groups”. Also, the “P4, one cow” value turned out to be 1.20 ng/mL in the assay with lactating Holstein cows [3] (DEV-PGF (four 25 mg doses by IVG device every 12 h), 36 h after treatment) and 1.21 ng/mL in the assay with lactating Holstein cows [3] (IM-PGF (two 25 mg im doses 24 h apart), 36 h after treatment). The “P4 concentrations compared with placebo device control” value in the assay on lactating Holstein cows [3] (DEV-PGF and IM-PGF vs DEV-CTRL, from 24 to 72 h) was “lesser P4 than cows in DEV-CTL; also recorded: lesser concentrations of P4 than cows in the DEV-CTRL treatment”. In the assay on lactating Holstein cows [3] (DEV-PGF and IM-PGF, 36 h after treatment), the “P4, all other cows” value was less than 1 ng/mL. Moreover, in the assay on lactating Holstein cows [3] (DEV-PGF and IM-PGF, 72 h), the “P4, all other cows, end of the sampling period” value was less than 0.5 ng/mL. Besides, the “luteal regression by PGF delivered automatically by the device” value with lactating Holstein cows [3] (DEV-PGF, lactating dairy cows) is “successful induction of luteal regression; also recorded: complete luteal regression”. Further, the “P4, one cow, end of the sampling period” value in the assay with lactating Holstein cows [3] (IM-PGF, 72 h) stood at 0.50 ng/mL. In addition, the “P4 concentrations, DEV-PGF compared with IM-PGF” value in the assay on lactating Holstein cows [3] (entire sampling period, 0 to 72 h) is given as “did not differ”. Further, the “CL regression, single bolus of IVG PGF compared with im PGF” value with lactating Holstein cows [4] (single IVG bolus (25, 50 or 125 mg) vs 25 mg im) is “less effectual than im PGF”. For the same compound, the “cows that experienced complete CL regression” value in the assay with lactating Holstein cows [4] (two 25 mg boluses of IVG PGF 12 hours apart, follow-up experiment) stood at 100%. The “blood/plasma progesterone after treatment compared with im PGF” value with lactating Holstein cows [4] (two IVG boluses 25 mg PGF 12 h apart (PGF25-2X-IVG) vs PGF25-IM, FIG. 10) was “indistinguishable from a single dose intramuscular injection of PGF”. For the same compound, in the assay on lactating Holstein cows [4] (two IVG boluses of PGF 12 hours apart, summary of the PGF experiments), the “luteolytic response compared with single im injection” value is recorded as “comparable luteolytic response to a single intramuscular injection of PGF”.

With “gonadotropin releasing hormone (QHWSYGLRPG; ends and bridges not checked; UniProt P01148 24-33, looked up) [GnRH, releasing hormone that triggers LH release]”, the “effect of adding 10% citric acid to the GnRH mixture” value in the assay on lactating Holstein cows [5] is recorded as “necessary for efficacy of IVG GnRH”.
